Patent publication US6080790A, “Tri-substituted phenyl derivatives and processes for their preparations” (priority 1992, dated 2000)
Where a name gives a salt, the structure may show the parent alone.

What was measured:
PDE IV, HL60 cells = experiment: Isolated enzyme, inhibition of PDE IV from HL60 cells; assay type: biochemical; settings: 0.1 μM [3H]-cAMP, pH 7.5, 30° C.; "Ki PDEIV HL60 at 1 μM"; read-out: approximate Ki value (PDE IV HL60)
Description: 1. Isolated Enzyme The potency and selectivity of the compounds of the invention was determined using a battery of distinct PDE isoenzymes as follows: iv. PDE IV, HL60 cells. The enzymes were purified to kinetic homogeneity using standard chromatographic techniques. Phosphodiesterase activity was assayed as follows. The reaction was conducted in 150 μl of standard mixture containing (final concentrations): 50 mM TES-NaOH buffer (pH 7.5), 10 mM MgCl2, 0.1 μM [^3 H]-cAMP and vehicle or various concentrations of the test compounds. The reaction was initiated by addition of enzyme and conducted at 30° C. for between 5 to 30 mins. […] An aliquot of the sample was then applied to a column of neutral alumina and the […] eluted with 10 ml 0.1 TES-NaOH buffer (pH8). […] Recovery of [3H]-5'AMP was determined using the [^14 C]-5'AMP and all assays were conducted in the linear range of the reaction.

[1] = used in asthma as a bronchodilator; cited from earlier work
papillary muscle = settings: reference substances, general statement; cited from earlier work
right atrial muscle = settings: reference substances, general statement; cited from earlier work

COc1ccc(-c2cccc([N+](=O)[O-])c2)cc1OC1CCCC1 [Example 7, 2-Cyclopentyloxy-4-(3-nitrophenyl)anisole]
Ki (PDE IV, HL60 cells): ~250 nM

Cn1c(=O)c2[nH]cnc2n(C)c1=O [theophylline]
cardiovascular changes [1]: significant cardiovascular changes such as tachycardia

Cc1[nH]c(=O)c(C#N)cc1-c1ccncc1 [milrinone]
direct inotropic effect (reference PDE inhibitors) (papillary muscle): positive chronotropic and inotropic effects | direct chronotropic effect (reference PDE inhibitors) (right atrial muscle): positive chronotropic and inotropic effects

COc1ccc(-c2cccnc2)cc1OC1CCCC1 [Example 4, 3-(3-Cyclopentyloxy-4-methoxyphenyl)pyridine hydrochloride]
Ki (PDE IV, HL60 cells): ~270 nM

COc1ccc(-c2cncc3ccccc23)cc1OC1CCCC1 [Example 2, 4-(3-Cyclopentyloxy-4-methoxyphenyl)isoquinoline]
Ki (PDE IV, HL60 cells): ~180 nM

COc1ccc(C2CNC(=O)C2)cc1OC1CCCC1 (centres unmarked) [rolipram]
direct inotropic effect (reference PDE inhibitors) (papillary muscle): do not have any direct effects | direct chronotropic effect (reference PDE inhibitors) (right atrial muscle): do not have any direct effects
